Target: human adenosine A2b receptor (Homo sapiens (Human), UniProt P29275)
Test: Cellular in vitro reporter gene test for A2b receptor activity (CHO-K1, CRE-luciferase, NECA stimulation)
Format: cell-based
Conditions: recombinant CHO-K1 cell line, CRE-luciferase reporter, antagonism of EC50 concentration of NECA; in some cases means of several determinations, rounded to two significant figures; read-out: A2b receptor IC50
Procedure: B-1. Cellular In Vitro Tests for Determining A2b Receptor Activity and Adenosine Receptor Selectivity
In the case of the A2a and A2b cell lines, this is a minimal promoter having a plurality of cAMP-responsive elements (CRE). Stimulation of the Gs-coupled A2b or A2a receptors by NECA ultimately leads, via formation of cAMP, to CRE-dependent induction of luciferase expression, which is detected 3 hours after the start of the incubation with NECA using a detection solution in a suitable luminometer. For testing the antagonists, initially, in a pre-experiment, the concentration of NECA which, at the test day in question, results in half-maximum stimulation of luciferase expression (EC50 concentration) is determined. By joint incubation of this EC50 concentration of NECA with the substances to be tested, it is possible to determine their antagonistic activity.

Sequence of human adenosine A2b receptor (P29275 whole entry): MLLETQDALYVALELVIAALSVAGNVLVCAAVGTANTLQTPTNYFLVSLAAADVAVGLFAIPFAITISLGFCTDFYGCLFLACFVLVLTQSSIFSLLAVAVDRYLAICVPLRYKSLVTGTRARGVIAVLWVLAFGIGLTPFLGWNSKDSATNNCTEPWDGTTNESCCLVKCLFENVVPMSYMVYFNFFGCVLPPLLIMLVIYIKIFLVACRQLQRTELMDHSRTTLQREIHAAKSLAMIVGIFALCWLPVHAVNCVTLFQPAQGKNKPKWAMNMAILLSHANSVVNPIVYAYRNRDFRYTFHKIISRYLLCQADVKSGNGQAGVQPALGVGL

COC(C)Cn1c(=O)c2c(C)c(CN3CCNC(=O)C3=O)sc2n(CCC(F)(F)F)c1=O (single isomer, unassigned) [Example 494, 6-[(2,3-Dioxopiperazin-1-yl)methyl]-3-(2-methoxypropyl)-5-methyl-1-(3,3,3-trifluoropropyl)thieno[2,3-d]pyrimidine-2,4(1H,3H)-dione] showed an IC50 of 20 nM.

C#CCCn1c(=O)c2c(C)c(CN3CCNC3=O)sc2n(CCOC)c1=O [Example 318, 3-(But-3-yn-1-yl)-1-(2-methoxyethyl)-5-methyl-6-[(2-oxoimidazolidin-1-yl)methyl]thieno[2,3-d]pyrimidine-2,4(1H,3H)-dione] showed an IC50 of 1.4 nM.

Cc1c(CN2CCNC2=S)sc2c1c(=O)n(CC(C)C)c(=O)n2CC1CCO1 (single isomer, unassigned) [Example 147, 3-Isobutyl-5-methyl-1-(oxetan-2-ylmethyl)-6-[(2-thioxoimidazolidin-1-yl)methyl]thieno[2,3-d]pyrimidine-2,4(1H,3H)-dione] showed an IC50 of 22 nM.

For COCCn1c(=O)n(CC2CCCO2)c(=O)c2c(C)c(CN3CCNC3=O)sc21 (single isomer, unassigned) [Example 333, 1-(2-Methoxyethyl)-5-methyl-6-[(2-oxoimidazolidin-1-yl)methyl]-3-(tetrahydrofuran-2-ylmethyl)thieno[2,3-d]pyrimidine-2,4(1H,3H)-dione], the IC50 was 110 nM.

[2H]C([2H])(c1sc2c(c1C)c(=O)n(CC(F)(F)F)c(=O)n2CCOC)N1CCNC1=O [Example 500, 1-(2-Methoxyethyl)-5-methyl-6-[(2-oxoimidazolidin-1-yl)(dideutero)methyl]-3-(2,2,2-trifluoroethyl)thieno[2,3-d]pyrimidine-2,4(1H,3H)-dione] showed an IC50 of 10 nM.

Molecule Cc1c(CN2CCNC2=S)sc2c1c(=O)n(CC(C)C)c(=O)n2CCCF [Example 144, 1-(3-Fluoropropyl)-3-isobutyl-5-methyl-6-[(2-thioxoimidazolidin-1-yl)methyl]thieno[2,3-d]pyrimidine-2,4(1H,3H)-dione] has an IC50 of 1.5 nM.

For C=CCn1c(=O)c2c(C)c(CN3CCNC3=O)sc2n(CCOC)c1=O [Example 85, 3-Allyl-1-(2-methoxyethyl)-5-methyl-6-[(2-oxoimidazolidin-1-yl)methyl]thieno[2,3-d]pyrimidine-2,4(1H,3H)-dione], the IC50 was 18 nM.

COCCn1c(=O)n(CC(C)C)c(=O)c2c(C)c(CN3CCNC3=S)sc21 [Example 39, 3-Isobutyl-1-(2-methoxyethyl)-5-methyl-6-[(2-thioxoimidazolidin-1-yl)methyl]thieno[2,3-d]pyrimidine-2,4(1H,3H)-dione] showed an IC50 of 3.6 nM.

CCOCCn1c(=O)c2c(C)c(CN3CCNC3=S)sc2n(CCCF)c1=O [Example 405, 3-(2-Ethoxyethyl)-1-(3-fluoropropyl)-5-methyl-6-[(2-thioxoimidazolidin-1-yl)methyl]thieno[2,3-d]pyrimidine-2,4(1H,3H)-dione] was tested, and the IC50 was 30 nM.

Molecule Cc1c(Cn2[nH]ccc2=O)sc2c1c(=O)n(CC(F)(F)F)c(=O)n2CC1CCCO1 (single isomer, unassigned) [Example 285, 5-Methyl-6-[(5-oxo-2,5-dihydro-1H-pyrazol-1-yl)methyl]-1-(tetrahydrofuran-2-ylmethyl)-3-(2,2,2-trifluoroethyl)thieno[2,3-d]pyrimidine-2,4(1H,3H)-dione] has an IC50 of 91 nM.

In the case of CCn1c(=O)c2c(C)c(Cn3nc[nH]c3=O)sc2n(CCOC)c1=O [Example 114, 3-Ethyl-1-(2-methoxyethyl)-5-methyl-6-[(5-oxo-4,5-dihydro-1H-1,2,4-triazol-1-yl)methyl]thieno[2,3-d]pyrimidine-2,4(1H,3H)-dione], the IC50 is reported as 39 nM.

With COCCn1c(=O)n(CCc2ccccc2)c(=O)c2c(C)c(CN3CCCS3(=O)=O)sc21 [Example 15, 6-[(1,1-Dioxido-1,2-thiazolidin-2-yl)methyl]-1-(2-methoxyethyl)-5-methyl-3-(2-phenylethyl)thieno[2,3-d]pyrimidine-2,4(1H,3H)-dione] the IC50 was 3.1 nM.

COCCn1c(=O)c2c(C)c(Cn3[nH]ccc3=O)sc2n(CC2CCCO2)c1=O (single isomer, unassigned) [Example 290, 3-(2-Methoxyethyl)-5-methyl-6-[(5-oxo-2,5-dihydro-1H-pyrazol-1-yl)methyl]-1-(tetrahydrofuran-2-ylmethyl)thieno[2,3-d]pyrimidine-2,4(1H,3H)-dione] gave an IC50 of 400 nM.

COCCn1c(=O)c2c(C)c(CN3CCNC3=NC#N)sc2n(CC2CCO2)c1=O (racemic) [Example 364, [1-{[3-(2-Methoxyethyl)-5-methyl-1-(oxetan-2-ylmethyl)-2,4-dioxo-1,2,3,4-tetrahydrothieno[2,3-d]pyrimidin-6-yl]methyl}imidazolidin-2-ylidene]cyanamide] was tested, and the IC50 was 170 nM.

In the case of CCn1c(=O)c2c(C)c(CN3CCNC3=O)sc2n(CCOC(F)(F)F)c1=O [Example 57, 3-Ethyl-5-methyl-6-[(2-oxoimidazolidin-1-yl)methyl]-1-[2-(trifluoromethoxy)ethyl]thieno[2,3-d]pyrimidine-2,4(1H,3H)-dione], the IC50 is reported as 0.88 nM.

CCn1c(=O)c2c(C)c(CN3CCNC3=O)sc2n(CC(C)OC)c1=O (single isomer, unassigned; enantiomer 1) [Example 63, 3-Ethyl-1-(2-methoxypropyl)-5-methyl-6-[(2-oxoimidazolidin-1-yl)methyl]thieno[2,3-d]pyrimidine-2,4(1H,3H)-dione (Enantiomer 1)] showed an IC50 of 39 nM.

In the case of Cc1c(CN2CCNC2=NC#N)sc2c1c(=O)n(C(C)C)c(=O)n2CCC(F)(F)F [Example 262, [1-{[3-Isopropyl-5-methyl-2,4-dioxo-1-(3,3,3-trifluoropropyl)-1,2,3,4-tetrahydrothieno[2,3-d]pyrimidin-6-yl]methyl}imidazolidin-2-ylidene]cyanamide], the IC50 is reported as 2.3 nM.

In the case of CCn1c(=O)c2c(C)c(CN3CCCC3=O)sc2n(CCC(F)(F)F)c1=O [Example 4, 3-Ethyl-5-methyl-6-[(2-oxopyrrolidin-1-yl)methyl]-1-(3,3,3-trifluoropropyl)thieno[2,3-d]pyrimidine-2,4(1H,3H)-dione], the IC50 is reported as 5.2 nM.

Work on CCOCCn1c(=O)n(CC(F)(F)F)c(=O)c2c(C)c(CN3CCNC3=O)sc21 [Example 205, 1-(2-Ethoxyethyl)-5-methyl-6-[(2-oxoimidazolidin-1-yl)methyl]-3-(2,2,2-trifluoroethyl)thieno[2,3-d]pyrimidine-2,4(1H,3H)-dione] yielded an IC50 of 25 nM.

Work on Cc1c(CN2CCNC2=O)sc2c1c(=O)n(C(C)C)c(=O)n2C [Example 312, 3-Isopropyl-1,5-dimethyl-6-[(2-oxoimidazolidin-1-yl)methyl]thieno[2,3-d]pyrimidine-2,4(1H,3H)-dione] yielded an IC50 of 22 nM.

In the case of Cc1c(CN2CCNC2=O)sc2c1c(=O)n(CC(C)C)c(=O)n2CCF [Example 88, 1-(2-Fluoroethyl)-3-isobutyl-5-methyl-6-[(2-oxoimidazolidin-1-yl)methyl]thieno[2,3-d]pyrimidine-2,4(1H,3H)-dione], the IC50 is reported as 6.7 nM.

For CCOCCn1c(=O)n(CC)c(=O)c2c(C)c(CN3CCNC3=S)sc21 [Example 32, 1-(2-Ethoxyethyl)-3-ethyl-5-methyl-6-[(2-thioxoimidazolidin-1-yl)methyl]thieno[2,3-d]pyrimidine-2,4(1H,3H)-dione], the IC50 was 11 nM.

In the case of COCCn1c(=O)n(C(C)C)c(=O)c2c(C)c(CN3CCNC3=NC#N)sc21 [Example 263, [1-{[3-Isoprpy-1-(2-methoxyethyl)-5-methyl-2,4-dioxo-1,2,3,4-tetrahydrothieno[2,3-d]pyrimidin-6-yl]methyl}imidazolidin-2-ylidene]cyanamide], the IC50 is reported as 5.3 nM.

Molecule CCn1c(=O)c2c(C)c(CN3CCNC3=NC(=O)OC)sc2n(CCOC)c1=O (single isomer, unassigned) [Example 119, Methyl [1-{[3-ethyl-1-(2-methoxyethyl)-5-methyl-2,4-dioxo-1,2,3,4-tetrahydrothieno[2,3-d]pyrimidin-6-yl]methyl}imidazolidin-2-ylidene]carbamate] has an IC50 of 2.7 nM.

Molecule CCn1c(=O)c2c(C)c(CN3CCNC3=S)sc2n(CC2CCCCO2)c1=O (single isomer, unassigned) [Example 141, 3-Ethyl-5-methyl-1-(tetrahydro-2H-pyran-2-ylmethyl)-6-[(2-thioxoimidazolidin-1-yl)methyl]thieno[2,3-d]pyrimidine-2,4(1H,3H)-dione] has an IC50 of 120 nM.

For Cc1c(CN2CCNC2=S)sc2c1c(=O)n(CC(F)(F)F)c(=O)n2CCC(F)(F)F [Example 152, 5-Methyl-6-[(2-thioxoimidazolidin-1-yl)methyl]-3-(2,2,2-trifluoroethyl)-1-(3,3,3-trifluoropropyl)thieno[2,3-d]pyrimidine-2,4(1H,3H)-dione], the IC50 was 0.79 nM.

COCCn1c(=O)n(C(C)C(F)(F)F)c(=O)c2c(C)c(CN3CCNC3=NC(=O)OC)sc21 (single isomer, unassigned) [Example 514, Methyl [1-{[1-(2-methoxyethyl)-5-methyl-2,4-dioxo-3-(1,1,1-trifluoropropan-2-yl)-1,2,3,4-tetrahydrothieno[2,3-d]pyrimidin-6-yl]methyl}imidazolidin-2-ylidene]carbamate] gave an IC50 of 32 nM.

Work on COC(=O)N=C1NCCN1Cc1sc2c(c1C)c(=O)n(CC(F)(F)F)c(=O)n2CC1CCO1 (single isomer, unassigned) [Example 467, Methyl [1-{[5-methyl-1-(oxetan-2-ylmethyl)-2,4-dioxo-3-(2,2,2-trifluoroethyl)-1,2,3,4-tetrahydrothieno[2,3-d]pyrimidin-6-yl]methyl}imidazolidin-2-ylidene]carbamate] yielded an IC50 of 30 nM.

Reference: patent publication US10428083B2, “Heterocyclylmethyl-thienouracile as antagonists of the adenosine-A2B-receptor” (BAYER PHARMA AKTIENGESELLSCHAFT, priority 2015, dated 2019)
